Consider 31 compounds from article PMC8286840, “Identifying SARS-CoV-2 antiviral compounds by screening for small molecule inhibitors of Nsp3 papain-like protease” (Biochemical Journal, 2021).

Where a name gives a salt, the structure may show the parent alone. Read-outs that look alike come from different tables or passages of the source.

In assay [1] the target is T1, SARS-CoV-2 PLpro (nsp3 1564–1878) (Severe acute respiratory syndrome coronavirus 2, UniProt P0DTD1). As to the kind of experiment: biochemical. The note with it: low concentration screen, read-out: % of control remaining. More on the design: FRET-quenched peptide (Pro3) cleavage by PLpro, 10 min pre-incubation, slope over 20 min, normalised to no-compound control.
In assay [2] the target is T1, SARS-CoV-2 PLpro (nsp3 1564–1878). Briefly: biochemical. More on the design: FRET-quenched peptide (Pro3) cleavage by PLpro, 10 min pre-incubation, slope over 20 min, normalised to no-compound control. The note with it: high concentration screen, read-out: % of control remaining.

Turning to `COc1nc(OCc2cccc(-c3ccccc3)c2C)ccc1CNCCN` [N-deacetylated BMS-202], the remaining activity at 1.25 µM in assay [1] (Well no.=8458) came out at 102%. Also, the remaining activity at 3.75 µM in assay [2] (Well no.=8458) was 100%.

`C[C@@H]1c2cc(O)c(O)cc2CCN1C` [N-methyl-R-salsolinol hydrobromide]: the remaining activity at 1.25 µM in assay [1] (Well no.=830) came out at 99.6%. Also, the remaining activity at 3.75 µM in assay [2] (Well no.=830) came to 101%.

With `C[C@H](C#Cc1ccc(Cc2ccc(F)cc2)s1)N(O)C(N)=O` [N-{(1R)-3-[5-(4-fluorobenzyl)-2-thienyl]-1-methyl-2-propynyl}-N-hydroxyurea], the remaining activity at 1.25 µM in assay [1] (Well no.=5434) was found to be 99.4%. In assay [2] (Well no.=5434), the remaining activity at 3.75 µM was 103%.

Take `CON(C)C(=O)[C@H](O)[C@H](Cc1ccccc1)NC(=O)c1cc2cc(Cl)ccc2[nH]1` [N-{(1S,2R)-1-benzyl-2-hydroxy-3-[methoxy(methyl)amino]-3-oxopropyl}-5-chloro-1H-indole-2-carboxamide]: the remaining activity at 1.25 µM in assay [1] (Well no.=6057) was found to be 100%. Also, in assay [2] (Well no.=6057), the remaining activity at 3.75 µM was determined as 97.9%.

In the case of `CC(C)S(=O)(=O)N[C@H]1CCOC[C@@H]1c1ccc(-c2ccc(C#N)s2)cc1` [N-{(3R,4S)-3-[4-(5-cyano-2-thienyl)phenyl]tetrahydro-2H-pyran-4-yl}-2-propanesulfonamide], the remaining activity at 1.25 µM in assay [1] (Well no.=6010) is 100%. Moreover, in assay [2] (Well no.=6010), the remaining activity at 3.75 µM was 92.7%.

On to `COc1ccccc1N1CCN(CCCCN2C(=O)c3ccccc3C2=O)CC1` [NAN-190 (hydrobromide)], for which the remaining activity at 1.25 µM in assay [1] (Well no.=7191) amounted to 98.5%. Also, in assay [2] (Well no.=7191), the remaining activity at 3.75 µM stood at 94.2%.

As for `COc1ccccc1N1CCN(CCCCN2C(=O)c3ccccc3C2=O)CC1` [NAN-190 hydrobromide], the remaining activity at 1.25 µM in assay [1] (Well no.=1141) came out at 97%. In assay [2] (Well no.=1141), the remaining activity at 3.75 µM was 99.5%.

Regarding `CCOc1ccc(-n2c([C@@H](C)N(Cc3cccnc3)C(=O)Cc3ccc(F)c(C(F)(F)F)c3)nc3ncccc3c2=O)cc1` [NBI-74330], in assay [1] (Well no.=8611), the remaining activity at 1.25 µM stood at 108%. Besides, the remaining activity at 3.75 µM in assay [2] (Well no.=8611) was determined as 97.8%.

`NS(=O)(=O)c1cccc2c1c([N+](=O)[O-])cc1nc(O)c(O)nc12` [NBQX disodium]: the remaining activity at 1.25 µM in assay [1] (Well no.=942) was 101%. In assay [2] (Well no.=942), the remaining activity at 3.75 µM came to 98%.

With `O=C(O)/C=C/C(O)c1ccc(Cl)cc1` (centres unmarked) [NCS-356], the remaining activity at 1.25 µM in assay [1] (Well no.=807) turned out to be 102%. Also, in assay [2] (Well no.=807), the remaining activity at 3.75 µM amounted to 101%.

`O=C(O)/C=C1\CCCc2ccccc2C1O` (centres unmarked) [NCS-382]: the remaining activity at 1.25 µM in assay [1] (Well no.=903) was 101%. Besides, the remaining activity at 3.75 µM in assay [2] (Well no.=903) was determined as 99.9%.

For `CC(C)CCn1c(CN2CCN(C(=O)C3CC3)CC2)nc2c1c(=O)n(C)c(=O)n2C` [NCT-501], the remaining activity at 1.25 µM in assay [1] (Well no.=8532) worked out at 105%. Moreover, the remaining activity at 3.75 µM in assay [2] (Well no.=8532) came to 98.9%.

For `Cc1cc(C)nc(NC(=S)N2CCN(Cc3ccc(C(F)(F)F)cc3)CC2)c1` [NCT-503], the remaining activity at 1.25 µM in assay [1] (Well no.=8538) is 96.7%. In addition, in assay [2] (Well no.=8538), the remaining activity at 3.75 µM amounted to 93.8%.

Regarding `CC(=O)Oc1ccccc1C(=O)Oc1ccc(CO[N+](=O)[O-])cc1` [NCX 4040], in assay [1] (Well no.=6087), the remaining activity at 1.25 µM stood at 99.1%. In assay [2] (Well no.=6087), the remaining activity at 3.75 µM stood at 99.2%.

With `O=C(Nc1cc(C(=O)Nc2ccc(S(=O)(=O)O)cc2S(=O)(=O)O)cc(C(=O)Nc2ccc(S(=O)(=O)O)cc2S(=O)(=O)O)c1)Nc1cc(C(=O)Nc2ccc(S(=O)(=O)O)cc2S(=O)(=O)O)cc(C(=O)Nc2ccc(S(=O)(=O)O)cc2S(=O)(=O)O)c1` [NF449 octasodium salt], the remaining activity at 1.25 µM in assay [1] (Well no.=1095) worked out at 97.6%. Also, the remaining activity at 3.75 µM in assay [2] (Well no.=1095) came out at 98.3%.

`O=C(Nc1cccc(C(=O)Nc2ccc(S(=O)(=O)O)c3cc(S(=O)(=O)O)cc(S(=O)(=O)O)c23)c1)Nc1cccc(C(=O)Nc2ccc(S(=O)(=O)O)c3cc(S(=O)(=O)O)cc(S(=O)(=O)O)c23)c1` [NF 023]: the remaining activity at 1.25 µM in assay [1] (Well no.=813) came out at 88.1%. Besides, in assay [2] (Well no.=813), the remaining activity at 3.75 µM stood at 89.2%.

For the compound `Nc1ccc2ncnc(NCCc3ccc(Oc4ccccc4)cc3)c2c1` [NF-kB Activation Inhibitor], the remaining activity at 1.25 µM in assay [1] (Well no.=2566) came to 97.6%. Further, in assay [2] (Well no.=2566), the remaining activity at 3.75 µM amounted to 98.5%.

As for `NC(=NCCC[C@H](N)C(=O)O)NO` [NG-Hydroxy-L-arginine acetate], the remaining activity at 1.25 µM in assay [1] (Well no.=660) came out at 96.5%. Also, in assay [2] (Well no.=660), the remaining activity at 3.75 µM came to 96.5%.

As to `CNC(=N)NCCC[C@H](N)C(=O)O` [NG-Monomethyl-L-arginine acetate], in assay [1] (Well no.=886), the remaining activity at 1.25 µM was found to be 102%. In addition, the remaining activity at 3.75 µM in assay [2] (Well no.=886) amounted to 103%.

On to `COC(=O)[C@@H](N)CCCNC(=N)N[N+](=O)[O-]` [NG-Nitro-L-arginine methyl ester hydrochloride], for which, in assay [1] (Well no.=1001), the remaining activity at 1.25 µM turned out to be 99.6%. Moreover, the remaining activity at 3.75 µM in assay [2] (Well no.=1001) came to 98.3%.

In the case of `N=C(NCCC[C@H](N)C(=O)O)N[N+](=O)[O-]` [NG-Nitro-L-arginine], in assay [1] (Well no.=857), the remaining activity at 1.25 µM is 99.8%. The remaining activity at 3.75 µM in assay [2] (Well no.=857) was 101%.

Consider `O=C(NCCCCN1CCN(c2cccc(Cl)c2Cl)CC1)c1ccc2c(c1)Cc1ccccc1-2` [NGB 2904 hydrochloride], for which the remaining activity at 1.25 µM in assay [1] (Well no.=5407) was 97.8%. Besides, the remaining activity at 3.75 µM in assay [2] (Well no.=5407) is 101%.

On to `Cc1cnc(NC(=O)c2cc(S(=O)(=O)N(C)C)ccc2N2CCCC2)s1` [NGI-1], for which the remaining activity at 1.25 µM in assay [1] (Well no.=7684) came out at 103%. Further, the remaining activity at 3.75 µM in assay [2] (Well no.=7684) is 103%.

`CCCCCCCCCCCCCCCCn1cc[n+](Cc2ccccc2)c1C` [NH 125 - 1-Hexadecyl-2-methyl-3-(phenylmethyl)-1H-imidazolium iodide]: in assay [1] (Well no.=2336), the remaining activity at 1.25 µM worked out at 97.5%. In addition, in assay [2] (Well no.=2336), the remaining activity at 3.75 µM worked out at 97%.

Turning to `O=C(N[C@H]1CCN(C(=O)c2cc(C(F)(F)F)cc(C(F)(F)F)c2)[C@H](Cc2ccc(Cl)cc2)C1)c1ccnc2ccccc12` [NKP608], in assay [1] (Well no.=8427), the remaining activity at 1.25 µM was 93.4%. The remaining activity at 3.75 µM in assay [2] (Well no.=8427) was 92.6%.

Regarding `C[C@@]1(O)[C@H](O)[C@@H](CO)O[C@H]1n1ccc(N)nc1=O` [NM107], the remaining activity at 1.25 µM in assay [1] (Well no.=8897) stood at 99.5%. Besides, the remaining activity at 3.75 µM in assay [2] (Well no.=8897) turned out to be 100%.

As to `CN1CCC(NC(=O)c2cc(-c3c(O)cc(O)cc3Oc3ccc([N+](=O)[O-])cc3)on2)CC1` [NMS-E973], in assay [1] (Well no.=8620), the remaining activity at 1.25 µM is 94.8%. In addition, in assay [2] (Well no.=8620), the remaining activity at 3.75 µM was determined as 89.2%.

In the case of `CC1(NC2=NS(=O)(=O)c3sc(Cl)cc3N2)CC1` [NN414], in assay [1] (Well no.=5436), the remaining activity at 1.25 µM came to 103%. The remaining activity at 3.75 µM in assay [2] (Well no.=5436) was 104%.

Regarding `O=C(O)C1=CCCN(CCON=C(c2ccccc2)c2ccccc2)C1` [NO-711 hydrochloride], the remaining activity at 1.25 µM in assay [1] (Well no.=1149) was 92.4%. In assay [2] (Well no.=1149), the remaining activity at 3.75 µM was 88.4%.

For `CCCCCCCCCCCCC(=O)N1CCCCC1CNC(=O)[C@@H](N)CCCCN` (some centres unmarked) [NPC-15437 dihydrochloride], in assay [1] (Well no.=1132), the remaining activity at 1.25 µM came out at 94%. Besides, the remaining activity at 3.75 µM in assay [2] (Well no.=1132) came to 95.6%.

As to `CC(C)(Cc1ccc2ccccc2c1)NC[C@@H](O)COc1cccc(Cl)c1C#N` [NPS-2143 (hydrochloride)], in assay [1] (Well no.=7051), the remaining activity at 1.25 µM stood at 107%. In addition, the remaining activity at 3.75 µM in assay [2] (Well no.=7051) was determined as 105%.
